Experimental data from patent US20230093861A1, “RAPAMYCIN ANALOGS AS MTOR INHIBITORS” (Revolution Medicines, Inc., priority 2017, published 2023).
Like-named read-outs stand apart in the source and are kept apart here.

Columns and labels:
[1] = tested on: P-P70S6K (T389); test: Cell based AlphaLISA assay, inhibition of P-P70S6K (T389) (mTORC1 substrate phosphorylation) in MDA-MB-468 cells; conditions: Homo sapiens, 4 h, two to four hours at 37° C.
How it was run: (§1)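 Phosphoprotein levels were quantified with AlphaLISA SureFire Ultra kits after compound treatment. Incubation ended by removing assay buffer and lysing cells, and the Alpha signal was read in duplicate. IC50 came from normalized concentration-response regression with control-based normalization.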

[2] = tested on: P-Akt (S473); test: Cell based AlphaLISA assay, inhibition of P-Akt (S473) (mTORC2 substrate phosphorylation) in MDA-MB-468 cells; conditions: Homo sapiens, MDA-MB-468, 4 h, two to four hours at 37° C.
How it was run: as §1

[3] = tested on: P-4E-BP1 (T37/46); test: Cell based AlphaLISA assay, inhibition of P-4E-BP1 (T37/46) (mTORC1 substrate phosphorylation) in MDA-MB-468 cells; conditions: Homo sapiens, MDA-MB-468, 4 h, two to four hours at 37° C.
How it was run: as §1

[4] = AlphaLISA, read-out: pIC50 for Inhibition of mTORC1 and mTORC2 Substrate Phosphorylation, P-P70S6K-(T389) (converted)
[5] = AlphaLISA, read-out: pIC50 for Inhibition of mTORC1 and mTORC2 Substrate Phosphorylation, p-AKT 1/2/3 -(S473) (converted)
[6] = AlphaLISA, read-out: pIC50 for Inhibition of mTORC1 and mTORC2 Substrate Phosphorylation, P-4E-BP1-(T37/46) (converted)

IC50 ([1]; AlphaLisa SureFire Ultra, read-out: IC50 for Inhibition of mTORC1 and mTORC2 Substrate Phosphorylation, p-P70S6K-(T389)) [nM]	IC50 ([2]; AlphaLisa SureFire Ultra, read-out: IC50 for Inhibition of mTORC1 and mTORC2 Substrate Phosphorylation, p-AKT1/2/3-(S473)) [nM]	IC50 ([3]; AlphaLisa SureFire Ultra, read-out: IC50 for Inhibition of mTORC1 and mTORC2 Substrate Phosphorylation, p-4E-BP1-(T37/46)) [nM]	SMILES	IC50 [1, 4] [nM]	IC50 [2, 5] [nM]	IC50 [3, 6] [nM]
–	–	–	CO[C@H]1C[C@@H]2CC[C@@H](C)[C@@](O)(O2)C(=O)C(=O)N2CCCC[C@H]2C(=O)O[C@H]([C@H](C)C[C@@H]2CC[C@@H](OCc3cccc(-c4cnc(N5CCN(S(=O)(=O)CCc6cn(CCOCCOCCOCCC(=O)NCCCCn7nc(-c8ccc9oc(N)nc9c8)c8c(N)ncnc87)nn6)CC5)nc4)c3)[C@H](OC)C2)CC(=O)[C@H](C)/C=C(\C)[C@@H](O)[C@@H](OC)C(=O)[C@H](C)C[C@H](C)/C=C/C=C/C=C/1C [Example 27]	< 1	3.16 to 31.6	< 3.16
–	–	–	CO[C@H]1C[C@@H]2CC[C@@H](C)[C@@](O)(O2)C(=O)C(=O)N2CCCC[C@H]2C(=O)O[C@H]([C@H](C)C[C@@H]2CC[C@H](n3nncc3-c3cccc(-c4cnc(N5CCN(S(=O)(=O)CCc6cn(CCOCCOCCOCCOCC(=O)NCCCCn7nc(-c8ccc9oc(N)nc9c8)c8c(N)ncnc87)nn6)CC5)nc4)c3)[C@H](OC)C2)CC(=O)[C@H](C)/C=C(\C)[C@@H](O)[C@@H](OC)C(=O)[C@H](C)C[C@H](C)/C=C/C=C/C=C/1C [Example 37]	< 1	3.16 to 31.6	< 3.16
–	–	–	CO[C@H]1C[C@@H]2CC[C@@H](C)[C@@](O)(O2)C(=O)C(=O)N2CCCC[C@H]2C(=O)O[C@H]([C@H](C)C[C@@H]2CC[C@H](n3cc(COC(=O)NCCOCCOCCOCCC(=O)NCCOCCOCCOCCC(=O)NCCCCn4nc(-c5cc6cc(O)ccc6[nH]5)c5c(N)ncnc54)nn3)[C@H](OC)C2)CC(=O)[C@H](C)/C=C(\C)[C@@H](O)[C@@H](OC)C(=O)[C@H](C)C[C@H](C)/C=C/C=C/C=C/1C [Example 123]	1 to 10	31.6 to 1000	3.16 to 31.6
–	–	–	CO[C@H]1C[C@@H]2CC[C@@H](C)[C@@](O)(O2)C(=O)C(=O)N2CCCC[C@H]2C(=O)O[C@H]([C@H](C)C[C@@H]2CC[C@H](n3cc(-c4cnc(N5CCN(c6ncc(C(=O)NCCOCCOCCOCCOCCC(=O)NCCCCn7nc(-c8cc9cc(O)ccc9[nH]8)c8c(N)ncnc87)cn6)CC5)nc4)nn3)[C@H](OC)C2)CC(=O)[C@H](C)/C=C(\C)[C@@H](O)[C@@H](OC)C(=O)[C@H](C)C[C@H](C)/C=C/C=C/C=C/1C [Example 116]	< 1	> 1000	3.16 to 31.6
–	–	–	CO[C@H]1C[C@@H]2CC[C@@H](C)[C@@](O)(O2)C(=O)C(=O)N2CCCC[C@H]2C(=O)O[C@H]([C@H](C)C[C@@H]2CC[C@@H](O)[C@H](OC)C2)C[C@@H](OC)[C@H](C)/C=C(\C)[C@@H](O)[C@@H](OC)C(=NOCc2cn(CCOCCOCCOCCOCCOCCOCCOCCOCCC(=O)NCCCCn3nc(-c4ccc5oc(N)nc5c4)c4c(N)ncnc43)nn2)[C@H](C)C[C@H](C)/C=C/C=C/C=C/1C [Example 17]	1 to 10	31.6 to 1000	3.16 to 31.6
–	–	–	CO[C@H]1C[C@@H]2CC[C@@H](C)[C@@](O)(O2)C(=O)C(=O)N2CCCC[C@H]2C(=O)O[C@H]([C@H](C)C[C@@H]2CC[C@@H](OCc3cccc(-c4cnc(N5CCN(Cc6cn(CCOCCOCCOCCC(=O)NCCCCn7nc(-c8ccc9oc(N)nc9c8)c8c(N)ncnc87)nn6)CC5)nc4)c3)[C@H](OC)C2)CC(=O)[C@H](C)/C=C(\C)[C@@H](O)[C@@H](OC)C(=O)[C@H](C)C[C@H](C)/C=C/C=C/C=C/1C [Example 22]	< 1	3.16 to 31.6	< 3.16
–	–	–	CO[C@H]1C[C@@H]2CC[C@@H](C)[C@@](O)(O2)C(=O)C(=O)N2CCCC[C@H]2C(=O)O[C@H]([C@H](C)C[C@@H]2CC[C@@H](O)[C@H](OC)C2)C[C@@H](OC)[C@H](C)/C=C(\C)[C@@H](O)[C@@H](OC)C(=NOCc2cn(CCOCCOCCOCCOCCOCCNC(=O)CCC(=O)NCCCCn3nc(-c4ccc5oc(N)nc5c4)c4c(N)ncnc43)nn2)[C@H](C)C[C@H](C)/C=C/C=C/C=C/1C [Example 105]	1 to 10	31.6 to 1000	3.16 to 31.6
1.4	3.7	16	CC(C)n1nc(-c2ccc3oc(N)nc3c2)c2c(N)ncnc21 [MLN-128, reference compound]	–	–	–
–	–	–	CO[C@H]1C[C@@H]2CC[C@@H](C)[C@@](O)(O2)C(=O)C(=O)N2CCCC[C@H]2C(=O)O[C@H]([C@H](C)C[C@@H]2CC[C@@H](O)[C@H](OC)C2)C[C@@H](O)[C@H](C)/C=C(\C)[C@@H](O)[C@@H](OC)C(=NOCc2cn(CCOCCOCCOCCOCCOCCOCCOCCOCCC(=O)NCCCCn3nc(-c4cnc5[nH]ccc5c4)c4c(N)ncnc43)nn2)[C@H](C)C[C@H](C)/C=C/C=C/C=C/1C [Example 79]	< 1	31.6 to 1000	3.16 to 31.6
–	–	–	COc1cccc2cc(-c3nc([C@H]4CC[C@H](C(=O)NCCOCCOCCOCCOCCOCCOCCOCCOCCn5cc(CCCCO[C@@H]6CC[C@@H](C[C@@H](C)[C@@H]7CC(=O)[C@H](C)/C=C(\C)[C@@H](O)[C@@H](OC)C(=O)[C@H](C)C[C@H](C)/C=C/C=C/C=C(\C)[C@@H](OC)C[C@@H]8CC[C@@H](C)[C@@](O)(O8)C(=O)C(=O)N8CCCC[C@H]8C(=O)O7)C[C@H]6OC)nn5)CC4)n4ncnc(N)c34)[nH]c12 [Example 108]	< 1	3.16 to 31.6	< 3.16
–	–	–	CO[C@H]1C[C@@H]2CC[C@@H](C)[C@@](O)(O2)C(=O)C(=O)N2CCCC[C@H]2C(=O)O[C@H]([C@H](C)C[C@@H]2CC[C@@H](OCCOCc3cn(CCOCCOCCOCCOCCOCCOCCC(=O)N4CC(Cn5nc(-c6ccc7oc(N)nc7c6)c6c(N)ncnc65)C4)nn3)[C@H](OC)C2)CC(=O)[C@H](C)/C=C(\C)[C@@H](O)[C@@H](OC)C(=O)[C@H](C)C[C@H](C)/C=C/C=C/C=C/1C [Example 57]	< 1	3.16 to 31.6	< 3.16
–	–	–	CO[C@H]1C[C@@H]2CC[C@@H](C)[C@@](O)(O2)C(=O)C(=O)N2CCCC[C@H]2C(=O)O[C@H]([C@H](C)C[C@@H]2CC[C@H](n3cc(COC(=O)NCCOCCOCCOCCC(=O)NCCOCCOCCC(=O)NCCCCn4nc(-c5ccc6oc(N)nc6c5)c5c(N)ncnc54)nn3)[C@H](OC)C2)C[C@@H](OC)[C@H](C)/C=C(\C)[C@@H](O)[C@@H](OC)C(=O)[C@H](C)C[C@H](C)/C=C/C=C/C=C/1C [Example 143]	1 to 10	> 1000	31.6 to 1000
–	–	–	CO[C@H]1C[C@@H]2CC[C@@H](C)[C@@](O)(O2)C(=O)C(=O)N2CCCC[C@H]2C(=O)O[C@H]([C@H](C)C[C@@H]2CC[C@H](n3cc(COC(=O)NCCOCCOCCOCCC(=O)NCCOCCOCCOCCC(=O)NCCCCn4nc(-c5cc6cc(O)ccc6[nH]5)c5c(N)ncnc54)nn3)[C@H](OC)C2)C/C(=N/OCc2ccccc2)[C@H](C)/C=C(\C)[C@@H](O)[C@@H](OC)C(=O)[C@H](C)C[C@H](C)/C=C/C=C/C=C/1C [Example 157]	> 1000	> 1000	> 1000
